What was measured:
Conditions in all cases: stereoisomer not certain
[1] = HILIC, Waters Atlantis Premier BEH Z-HILIC, 100 × 2.1 mm, 1.7 µm, 40 °C, 0.15 mL/min, estimated dead time 1.5 min; A: water + 20 mM ammonium carbonate + 5 µM medronic acid; B: 10% water + 90% acetonitrile + 2 mM ammonium carbonate + 0.5 µM medronic acid; gradient (min/%B) 0/97 18/55 18.1/20 21.5/20 22/97 23.5/97 25.5/97
[2] = HILIC, Waters Atlantis Premier BEH Z-HILIC, 100 × 2.1 mm, 1.7 µm, 40 °C, 0.15 mL/min, estimated dead time 1.5 min; A: water + 20 mM ammonium carbonate + 5 µM medronic acid; B: 10% water + 90% acetonitrile + 2 mM ammonium carbonate + 0.5 µM medronic acid; gradient (min/%B) 0/95 18/50 18.1/20 21.5/20 22/95 23.5/95 25.5/95
[3] = RP, Waters ACQUITY UPLC BEH C18, 100 × 2.1 mm, 1.7 µm, 35 °C, 0.3 mL/min, estimated dead time 0.73 min; A: water + 0.1% formic acid, pH 3; B: methanol; gradient (min/%B) 0/10 1.6/10 2/20 6/70 7/70 14/90 17.5/90 18/95 21/95
[4] = RP, Waters ACQUITY UPLC HSS T3, 0.4 mL/min; A: water + 0.01% formic acid; B: 50% water + 50% acetonitrile + 0.01% formic acid; gradient (min/%B) 0/0 0.5/0 9/30 10/50 15/100 16/100 17/0 25/0
[5] = RP, Waters ACQUITY UPLC BEH C18, 100 × 2.1 mm, 1.7 µm, 35 °C, 0.25 mL/min, estimated dead time 0.88 min; A: water + 0.1% acetic acid, pH 3; B: acetonitrile; gradient (min/%B) 0/10 1/10 2.5/15 4/22 6/38 9/65 12/80 16/100 19/100
[6] = RP, Waters ACQUITY UPLC BEH C18, 100 × 2.1 mm, 1.7 µm, 35 °C, 0.3 mL/min, estimated dead time 0.73 min; A: water + 0.1% formic acid, pH 3; B: methanol; gradient (min/%B) 0/0 1.6/0 2/20 6/70 7/70 14/90 17.5/90 18/95 21/95

Row | SMILES | LC retention time [1] [min] | LC retention time [2] [min] | LC retention time [4] [min] | further results
1 | O=C(CO)COP(=O)(O)O [Triose phosphate] | 10.7 | 9.62 | – | –
2 | CC(O)C(=O)O (configuration not stated) [Lactic acid] | – | – | – | LC retention time [3]: 1.11 min
3 | COC1C(O)C(CO)OC1n1cnc2c(N)ncnc21 (configuration not stated) [2'-O-methyladenosine] | – | – | 5.78 | –
4 | O=C(O)CCC(=O)C(=O)O [2-Oxoglutaric acid] | 9.47 | 8.54 | – | –
5 | Nc1ncnc2c1ncn2C1OC(CO)C(O)C1O (configuration not stated) [adenosine] | – | – | 4.57 | –
6 | NC(Cc1ccccc1)C(=O)O (configuration not stated) [Phenylalanine] | – | – | – | LC retention time [5]: 2 min
7 | CC(=O)NC(Cc1ccccc1)C(=O)O (configuration not stated) [N-acetylphenylalanine] | – | – | – | LC retention time [5]: 5 min
8 | O=C(O)CC(O)(CC(=O)O)C(=O)O [Citric acid] | 14.1 | 12.9 | – | –
9 | CC(C)CC(N)C(=O)O (configuration not stated) [Leucine] | – | – | – | LC retention time [3]: 1.62 min
10 | COC1C(O)C(CO)OC1n1ccc(=O)[nH]c1=O (configuration not stated) [2'-O-methyluridine] | – | – | 4.79 | –
11 | O=C(O)CCC(=O)O [Succinic Acid] | 10 | 9.06 | – | –
12 | NC(CCC(=O)NC(CSCO)C(=O)NCC(=O)O)C(=O)O (stereo not drawn) [S-(Hydroxymethyl)glutathione] | – | – | – | LC retention time [6]: 1.7 min
13 | O=C(O)CCC(O)C(=O)O (configuration not stated) [2-hydroxy glutaric acid] | 10 | 8.97 | – | –
14 | O=C(O)CC(C(=O)O)C(O)C(=O)O (configuration not stated) [Isocitric acid] | 13.9 | 12.6 | – | –
15 | Nc1nc2c(ncn2C2OC(CO)C(O)C2O)c(=O)[nH]1 (configuration not stated) [guanosine] | – | – | 4.08 | –
16 | CCC(=O)OC(CC(=O)[O-])C[N+](C)(C)C (configuration not stated) [carnitine-C3] | 7.17 | 6.36 | – | –
17 | CCCC(=O)OC(CC(=O)[O-])C[N+](C)(C)C (configuration not stated) [Butyrylcarnitine] | – | – | – | LC retention time [3]: 2.75 min
18 | C=C(OP(=O)(O)O)C(=O)O [PEP] | 13.8 | 12.5 | – | –
19 | NC(CCC(=O)NC(CS)C(=O)NCC(=O)O)C(=O)O (configuration not stated) [Glutathione] | – | – | – | LC retention time [6]: 2 min; LC retention time [3]: 1 min
20 | NC(CCC(=O)NC(CSSCC(NC(=O)CCC(N)C(=O)O)C(=O)NCC(=O)O)C(=O)NCC(=O)O)C(=O)O (configuration not stated) [Oxidized glutathione] | – | – | – | LC retention time [6]: 3 min; LC retention time [3]: 1.04 min
21 | COC1C(O)C(CO)OC1n1cnc2c(=O)[nH]c(N)nc21 (configuration not stated) [2'-O-methylguanosine] | – | – | 5.34 | –
22 | O=c1ccn(C2OC(CO)C(O)C2O)c(=O)[nH]1 (configuration not stated) [uridine] | – | – | 2.04 | –
23 | CC(C)CC(NC(=O)C(C)O)C(=O)O (configuration not stated) [N-lactoyl-leucine] | – | – | – | LC retention time [5]: 5 min
24 | COC1C(c2c[nH]c(=O)[nH]c2=O)OC(CO)C1O (configuration not stated) [2'-O-methylpseudouridine] | – | – | 4.95 | –
25 | Nc1ccn(C2OC(CO)C(O)C2O)c(=O)n1 (configuration not stated) [cytidine] | – | – | 0.92 | –
26 | O=C(O)C(CO)OP(=O)(O)O (configuration not stated) [Phosphoglyceric acid A] | 12.9 | 11.6 | – | –
